Among the data in patent US9845322B2 (Hoffmann-La Roche Inc., priority 2016, dated 2017) are IC50 values, retold here.

This experiment has as its system HBsAg secretion in HepG2.2.15 cells. The experiment in a line: HBsAg assay (chemiluminescence immunoassay of secreted HBsAg in culture supernatant). It is filed as cell-based, HBV. Particulars: HepG2.2.15 cells; concentration at which HBsAg secretion was reduced by 50% compared to the no drug control; read-out: IC50 (HBsAg assay). As to the method: HepG2.2.15 cells (Acs et al. Proc Natl Acad Sci USA, 84, (1987), 4641-4), a constitutively HBV-expressing cell line were cultured in DMEM+Glutamax-I medium (Invitrogen, Carlsbad, Calif., USA), supplemented with 10% fetal bovine serum (Invitrogen) and G418 (Invitrogen) at a final concentration of 200 mg/L and maintained in 5% CO2 at 37° C.
HepG2.2.15 cells were seeded in duplicate into white, 96-well plates at 1.5×10^4 cells/well. The cells were treated with a three-fold serial dilution series of the compounds in DMSO. The final DMSO concentration in all wells was 1% and DMSO was used as no drug control.
The HBsAg chemiluminescence immunoassay (CLIA) kit (Autobio Diagnostics Co., Zhengzhou, China, Catalog number: CL0310-2) was used to measure the levels of secreted HBV antigens semi-quantitatively. For the detection 50 μL/well culture supernatant was used and HBsAg was quantified using HBsAg chemiluminescence immunoassay (CLIA) kit (Autobio Diagnostics Co., Zhengzhou, China, Catalog number: CL0310-2), 50 μL of the supernatant was transferred to the CLIA assay plate and 50 μL of enzyme conjugate reagent was added into each well. The plates were sealed and gently agitated for 1 hour at room temperature. The supernatant-enzyme-mixture was discarded and wells were washed 6 times with 300 μL of PBS. The residual liquid was removed by plating the CLIA plate […] on absorbent tissue paper. 25 μL of substrates A and B were added to each well. Luminance was measured using a luminometer (Mithras LB 940 Multimode Microplate Reader) after 10 minutes incubation. Dose-response curves were generated and the IC50 value was extrapolated by using the E-WorkBook Suite (ID Business Solutions Ltd., Guildford, UK). The IC50 was defined as the compound concentration (or conditioned media log dilution) at which HBsAg secretion was reduced by 50% compared to the no drug control.
The compounds according to formula I were tested for their capacity to inhibit HBsAg as described herein.

The term IC50 denotes the point on the concentration scale where inhibition reaches its midpoint.

The structures appear in SMILES notation.

`CC1c2cnc(-c3ccccn3)nc2CCN1c1ccc([N+](=O)[O-])cc1` (single isomer, unassigned; (+)) [Example 2, (+)-5-methyl-6-(4-nitrophenyl)-2-(2-pyridyl)-7,8-dihydro-5H-pyrido[4,3-d]pyrimidine]: the IC50 is 2.06 µM.

In the case of `COc1cc(N2CCc3nc(-c4ccccn4)ncc3C2C)cc(F)c1F` (single isomer, unassigned; (+)) [Example 6, (+)-6-(3,4-difluoro-5-methoxy-phenyl)-5-methyl-2-(2-pyridyl)-7,8-dihydro-5H-pyrido[4,3-d]pyrimidine], the IC50 was found to be 8.07 µM.

Regarding `CCC1c2cnc(-c3ccccn3)nc2CCN1c1cc(F)c(F)c(OC)c1` (single isomer, unassigned; (+)) [Example 10, (+)-6-(3,4-difluoro-5-methoxy-phenyl)-5-ethyl-2-(2-pyridyl)-7,8-dihydro-5H-pyrido[4,3-d]pyrimidine], the IC50 came to 21.9 µM.

Turning to `CCCC1c2cnc(-c3ccccn3)nc2CCN1c1cc(F)c(F)c(OC)c1` (single isomer, unassigned; (+)) [Example 13, (+)-6-(3,4-difluoro-5-methoxy-phenyl)-5-propyl-2-(2-pyridyl)-7,8-dihydro-5H-pyrido[4,3-d]pyrimidine], the IC50 stood at 14.4 µM.

As to `COc1cc(N2CCc3nc(-c4ncccn4)ncc3C2C)cc(F)c1F` (single isomer, unassigned; (+)) [Example 16, (+)-6-(3,4-difluoro-5-methoxy-phenyl)-5-methyl-2-pyrimidin-2-yl-7,8-dihydro-5H-pyrido[4,3-d]pyrimidine], the IC50 turned out to be 1.52 µM.

Take `COCCOc1cc(N2CCc3nc(-c4ccccn4)ncc3C2C)cc(F)c1F` (single isomer, unassigned; (+)) [Example 20, (+)-6-[3,4-difluoro-5-(2-methoxyethoxy)phenyl]-5-methyl-2-(2-pyridyl)-7,8-dihydro-5H-pyrido[4,3-d]pyrimidine]: the 50% inhibitory concentration (IC50) came to 5.01 µM.

For `COc1cc(N2CCc3nc(-c4ncccn4)ncc3C2C)cc(Cl)c1F` (single isomer, unassigned; (+)) [Example 42, (+)-6-(3-chloro-4-fluoro-5-methoxy-phenyl)-5-methyl-2-pyrimidin-2-yl-7,8-dihydro-5H-pyrido[4,3-d]pyrimidine], the IC50 turned out to be 3.25 µM.

With `CC1c2cnc(-c3ncccn3)nc2CCN1c1cc(O)c(F)c(F)c1` (single isomer, unassigned; (+)) [Example 46, (+)-2,3-difluoro-5-(5-methyl-2-pyrimidin-2-yl-7,8-dihydro-5H-pyrido[4,3-d]pyrimidin-6-yl)phenol], the IC50 is 8.17 µM.

Take `CC1c2cnc(-c3ncccn3)nc2CCN1c1cc(F)c(F)c(OCCCS(C)(=O)=O)c1` (single isomer, unassigned; (+)) [Example 48, (+)-6-[3,4-difluoro-5-(3-methylsulfonylpropoxy)phenyl]-5-methyl-2-pyrimidin-2-yl-7,8-dihydro-5H-pyrido[4,3-d]pyrimidine]: the IC50 turned out to be 0.184 µM.

Consider `CC1c2cnc(-c3ncccn3)nc2CCN1c1cc(F)c(F)c(OCCCCCCN)c1` (single isomer, unassigned; (+)) [Example 61, (+)-6-[2,3-difluoro-5-[5-methyl-2-pyrimidin-2-yl-7,8-dihydro-5H-pyrido[4,3-d]pyrimidin-6-yl]phenoxy]hexan-1-amine], for which the half-maximal inhibitory concentration (IC50) was 3.32 µM.

In the case of `CC1c2cnc(-c3ncccn3)nc2CCN1c1cc(F)c(F)c(OCC(N)=O)c1` (single isomer, unassigned; (+)) [Example 67, (+)-2-[2,3-difluoro-5-[5-methyl-2-pyrimidin-2-yl-7,8-dihydro-5H-pyrido[4,3-d]pyrimidin-6-yl]phenoxy]acetamide], the half-inhibitory concentration (IC50) turned out to be 32.3 µM.

On to `COc1cc(F)cc(N2CCc3nc(-c4ncccn4)ncc3C2C)c1` (single isomer, unassigned; (+)) [Example 74, (+)-6-(3-fluoro-5-methoxy-phenyl)-5-methyl-2-pyrimidin-2-yl-7,8-dihydro-5H-pyrido[4,3-d]pyrimidine], for which the IC50 is 2.25 µM.
